ChEMBL document CHEMBL1201862, “PubChem BioAssay data set” (2004)
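48-hour exposure; five concentrations; linearly interpolated endpoints. Here, GI50 denotes the concentration required for 50% inhibition of growth.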 Calls of active or inactive are those of the source. No stated cut-off is given here; in the data, active = GI50 up to about 1.1 µM and inactive = higher.

Tests used:
Assay in all cases: growth of human tumour cells (NCI), 48 h
786-0 = test system: 786-0
A498 = test system: A498
A549 = test system: A549
ACHN = test system: ACHN
BT-549 = test system: BT-549
CAKI-1 = test system: CAKI-1
COLO 205 = test system: COLO 205
DU-145 = test system: DU-145
HCT-116 = test system: HCT-116
HCT-15 = test system: HCT-15
HL-60 = test system: HL-60
HOP-62 = test system: HOP-62
HOP-92 = test system: HOP-92
HT-29 = test system: HT-29
Hs-578T = test system: Hs-578T
IGROV-1 = test system: IGROV-1
K562 = test system: K562
KM12 = test system: KM12
LOX IMVI = test system: LOX IMVI
M14 = test system: M14
MCF7 = test system: MCF7
MDA-MB-231 = test system: MDA-MB-231
MDA-MB-435 = test system: MDA-MB-435
MDA-N = test system: MDA-N
MOLT-4 = test system: MOLT-4
Malme-3M = test system: Malme-3M
NCI-H226 = test system: NCI-H226
NCI-H23 = test system: NCI-H23
NCI-H460 = test system: NCI-H460
NCI-H522 = test system: NCI-H522
NCI/ADR-RES = test system: NCI/ADR-RES
OVCAR-3 = test system: OVCAR-3
OVCAR-4 = test system: OVCAR-4
OVCAR-5 = test system: OVCAR-5
OVCAR-8 = test system: OVCAR-8
PC-3 = test system: PC-3
RXF 393 = test system: RXF 393
SF-268 = test system: SF-268
SF-295 = test system: SF-295
SF-539 = test system: SF-539
SK-MEL-28 = test system: SK-MEL-28
SK-MEL-2 = test system: SK-MEL-2
SK-MEL-5 = test system: SK-MEL-5
SK-OV-3 = test system: SK-OV-3
SN12C = test system: SN12C
SNB-19 = test system: SNB-19
SNB-75 = test system: SNB-75
SR = test system: SR
SW-620 = test system: SW-620
T47D = test system: T47D
TK-10 = test system: TK-10
U-251 = test system: U-251
UACC-257 = test system: UACC-257
UACC-62 = test system: UACC-62
UO-31 = test system: UO-31
CCRF-CEM = test system: CCRF-CEM
EKVX = test system: EKVX
HCC 2998 = test system: HCC 2998
RPMI-8226 = test system: RPMI-8226

Structure (SMILES): CCOC(=O)CCc1c(C(=O)OCC)[nH]c(/C=C2/NC(=O)C(C)=C2CC)c1C
- GI50 (786-0): 15.8 µM (inactive)
- GI50 (A498): 17.1 µM (inactive)
- GI50 (A549): 24.3 µM (inactive)
- GI50 (ACHN): 11.3 µM (inactive)
- GI50 (BT-549): 1.61 µM (inactive)
- GI50 (CAKI-1): 21.2 µM (inactive)
- GI50 (COLO 205): 14 µM (inactive)
- GI50 (DU-145): 16.9 µM (inactive)
- GI50 (HCT-116): 13.1 µM (inactive)
- GI50 (HCT-15): 3.47 µM
- GI50 (HL-60): 5.01 µM (inactive)
- GI50 (HOP-62): 15 µM (inactive)
- GI50 (HOP-92): 14.1 µM (inactive)
- GI50 (HT-29): 10.4 µM (inactive)
- GI50 (Hs-578T): 25.1 µM (inactive)
- GI50 (IGROV-1): 8.38 µM (inactive)
- GI50 (K562): 0.0494 µM (active)
- GI50 (KM12): 10.9 µM (inactive)
- GI50 (LOX IMVI): 8.18 µM (inactive)
- GI50 (M14): 7.28 µM (inactive)
- GI50 (MCF7): 5 µM (inactive)
- GI50 (MDA-MB-231): 13.6 µM (inactive)
- GI50 (MDA-MB-435): 6.73 µM (inactive)
- GI50 (MDA-N): 5.83 µM (inactive)
- GI50 (MOLT-4): 0.0224 µM (active)
- GI50 (Malme-3M): 13 µM (inactive)
- GI50 (NCI-H226): 16.9 µM (inactive)
- GI50 (NCI-H23): 2.24 µM (inactive)
- GI50 (NCI-H460): 32.7 µM (inactive)
- GI50 (NCI-H522): 11.7 µM (inactive)
- GI50 (NCI/ADR-RES): 10.4 µM (inactive)
- GI50 (OVCAR-3): 3.88 µM (inactive)
- GI50 (OVCAR-4): 2.9 µM (inactive)
- GI50 (OVCAR-5): 29.5 µM (inactive)
- GI50 (OVCAR-8): 31.9 µM (inactive)
- GI50 (PC-3): 22.1 µM (inactive)
- GI50 (RXF 393): 11.1 µM (inactive)
- GI50 (SF-268): 10.2 µM (inactive)
- GI50 (SF-295): 11.6 µM (inactive)
- GI50 (SF-539): 19.5 µM (inactive)
- GI50 (SK-MEL-28): 13.7 µM (inactive)
- GI50 (SK-MEL-2): 18.3 µM (inactive)
- GI50 (SK-MEL-5): 2.97 µM (inactive)
- GI50 (SK-OV-3): 34.7 µM (inactive)
- GI50 (SN12C): 16.9 µM (inactive)
- GI50 (SNB-19): 13.1 µM (inactive)
- GI50 (SNB-75): 15.4 µM (inactive)
- GI50 (SR): 4.51 µM (inactive)
- GI50 (SW-620): 23.2 µM (inactive)
- GI50 (T47D): 2.11 µM (inactive)
- GI50 (TK-10): 24.7 µM (inactive)
- GI50 (U-251): 11.2 µM (inactive)
- GI50 (UACC-257): 10.1 µM (inactive)
- GI50 (UACC-62): 4.9 µM (inactive)
- GI50 (UO-31): 2 µM (inactive)

Structure (SMILES): CC(C)N(C(=O)C12C3(C(=O)OC(C)(C)C)C4C5(C#N)C3C1(C(=O)OC(C)(C)C)C5C42C(=O)OC(C)(C)C)C(C)C (stereo not given)
- GI50 (786-0): 34.6 µM (inactive)
- GI50 (A498): > 100 µM (inactive)
- GI50 (A549): 93.5 µM (inactive)
- GI50 (ACHN): > 100 µM (inactive)
- GI50 (BT-549): > 100 µM (inactive)
- GI50 (CAKI-1): 37.3 µM (inactive)
- GI50 (CCRF-CEM): 10.9 µM (inactive)
- GI50 (COLO 205): 21.5 µM (inactive)
- GI50 (DU-145): > 100 µM (inactive)
- GI50 (EKVX): 53 µM (inactive)
- GI50 (HCC 2998): 97.9 µM (inactive)
- GI50 (HCT-116): 19.8 µM (inactive)
- GI50 (HCT-15): 89.5 µM
- GI50 (HL-60): 20.1 µM (inactive)
- GI50 (HOP-62): > 100 µM (inactive)
- GI50 (HOP-92): 8.32 µM (inactive)
- GI50 (HT-29): 34.6 µM (inactive)
- GI50 (Hs-578T): 28.7 µM (inactive)
- GI50 (IGROV-1): > 100 µM (inactive)
- GI50 (K562): 34.6 µM (inactive)
- GI50 (KM12): > 100 µM (inactive)
- GI50 (LOX IMVI): 14.4 µM (inactive)
- GI50 (M14): 59.6 µM (inactive)
- GI50 (MCF7): 14.4 µM (inactive)
- GI50 (MDA-MB-231): 23 µM (inactive)
- GI50 (MDA-MB-435): 27.5 µM (inactive)
- GI50 (MDA-N): 19.1 µM (inactive)
- GI50 (MOLT-4): 13.6 µM (inactive)
- GI50 (NCI-H23): > 100 µM (inactive)
- GI50 (NCI-H460): 75.7 µM (inactive)
- GI50 (NCI-H522): 35.3 µM (inactive)
- GI50 (NCI/ADR-RES): 76.4 µM (inactive)
- GI50 (OVCAR-3): 47.8 µM (inactive)
- GI50 (OVCAR-4): 71.6 µM (inactive)
- GI50 (OVCAR-5): > 100 µM (inactive)
- GI50 (OVCAR-8): > 100 µM (inactive)
- GI50 (PC-3): 51.1 µM (inactive)
- GI50 (RXF 393): 12.9 µM (inactive)
- GI50 (SF-268): > 100 µM (inactive)
- GI50 (SF-295): 58.2 µM (inactive)
- GI50 (SF-539): > 100 µM (inactive)
- GI50 (SK-MEL-28): 29.4 µM (inactive)
- GI50 (SK-MEL-2): > 100 µM (inactive)
- GI50 (SK-MEL-5): 60.1 µM (inactive)
- GI50 (SN12C): > 100 µM (inactive)
- GI50 (SNB-19): > 100 µM (inactive)
- GI50 (SNB-75): 0.149 µM (active)
- GI50 (SR): 21.7 µM (inactive)
- GI50 (SW-620): 24.9 µM (inactive)
- GI50 (T47D): 31.9 µM (inactive)
- GI50 (TK-10): > 100 µM (inactive)
- GI50 (U-251): 83.9 µM (inactive)
- GI50 (UACC-257): 28.9 µM (inactive)
- GI50 (UACC-62): 40.6 µM (inactive)
- GI50 (UO-31): 60.4 µM (inactive)

Structure (SMILES): CN(C)/C=N/CC(O)c1ccccc1 (stereo not given)
- GI50 (786-0): > 100 µM (inactive)
- GI50 (A498): > 100 µM (inactive)
- GI50 (A549): > 100 µM (inactive)
- GI50 (ACHN): > 100 µM (inactive)
- GI50 (BT-549): > 100 µM (inactive)
- GI50 (CAKI-1): > 100 µM (inactive)
- GI50 (CCRF-CEM): > 100 µM (inactive)
- GI50 (COLO 205): > 100 µM (inactive)
- GI50 (DU-145): > 100 µM (inactive)
- GI50 (EKVX): > 100 µM (inactive)
- GI50 (HCT-116): > 100 µM (inactive)
- GI50 (HCT-15): > 100 µM
- GI50 (HL-60): > 100 µM (inactive)
- GI50 (HOP-62): > 100 µM (inactive)
- GI50 (HOP-92): > 100 µM (inactive)
- GI50 (HT-29): > 100 µM (inactive)
- GI50 (Hs-578T): 28.5 µM (inactive)
- GI50 (IGROV-1): > 100 µM (inactive)
- GI50 (K562): > 100 µM (inactive)
- GI50 (KM12): > 100 µM (inactive)
- GI50 (LOX IMVI): > 100 µM (inactive)
- GI50 (M14): > 100 µM (inactive)
- GI50 (MCF7): > 100 µM (inactive)
- GI50 (MDA-MB-231): > 100 µM (inactive)
- GI50 (MDA-MB-435): > 100 µM (inactive)
- GI50 (MDA-N): > 100 µM (inactive)
- GI50 (MOLT-4): > 100 µM (inactive)
- GI50 (Malme-3M): > 100 µM (inactive)
- GI50 (NCI-H226): > 100 µM (inactive)
- GI50 (NCI-H23): > 100 µM (inactive)
- GI50 (NCI-H460): > 100 µM (inactive)
- GI50 (NCI-H522): > 100 µM (inactive)
- GI50 (NCI/ADR-RES): > 100 µM (inactive)
- GI50 (OVCAR-3): > 100 µM (inactive)
- GI50 (OVCAR-4): > 100 µM (inactive)
- GI50 (OVCAR-5): > 100 µM (inactive)
- GI50 (PC-3): > 100 µM (inactive)
- GI50 (RPMI-8226): > 100 µM (inactive)
- GI50 (RXF 393): > 100 µM (inactive)
- GI50 (SF-268): > 100 µM (inactive)
- GI50 (SF-539): > 100 µM (inactive)
- GI50 (SK-MEL-28): > 100 µM (inactive)
- GI50 (SK-MEL-2): > 100 µM (inactive)
- GI50 (SK-MEL-5): > 100 µM (inactive)
- GI50 (SK-OV-3): > 100 µM (inactive)
- GI50 (SN12C): > 100 µM (inactive)
- GI50 (SNB-19): > 100 µM (inactive)
- GI50 (SNB-75): > 100 µM (inactive)
- GI50 (SR): > 100 µM (inactive)
- GI50 (SW-620): > 100 µM (inactive)
- GI50 (T47D): > 100 µM (inactive)
- GI50 (TK-10): > 100 µM (inactive)
- GI50 (U-251): > 10 µM (inactive)
- GI50 (UACC-62): > 100 µM (inactive)
- GI50 (UO-31): > 100 µM (inactive)
